Test results published in patent US6737383B1, “Herbicidal oxadiazolidines” (priority 1999, dated 2004).

Tests used:
[1] = tested on: blackgrass; experiment: Test B pre/postemergence blackgrass; assay type: in vivo, Alopecurus myosuroides
In short: (§1)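 Response is a visual 0-to-10 score relative to untreated plants, where 0 means no effect and 10 means complete control, taken twelve to sixteen days after application. Treatments went onto soil at planting and onto foliage of 1- to 4-leaf plants, using a surfactant-containing non-phytotoxic solvent.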

[2] = tested on: pigweed; experiment: Test B pre/postemergence pigweed; assay type: in vivo, Amaranthus retroflexus
In short: as §1

[3] = tested on: cocklebur; experiment: Test B pre/postemergence cocklebur; assay type: in vivo, Xanthium strumarium
In short: as §1

[4] = tested on: rape; experiment: Test B pre/postemergence rape; assay type: in vivo, Brassica napus
In short: as §1

[5] = tested on: wheat; experiment: Test B pre/postemergence wheat; assay type: in vivo, Triticum aestivum
In short: as §1

[6] = tested on: surinam grass; experiment: Test B pre/postemergence surinam grass; assay type: in vivo, Brachiaria decumbens
In short: as §1

[7] = tested on: giant foxtail; experiment: Test B pre/postemergence giant foxtail; assay type: in vivo, Setaria faberii
In short: as §1

[8] = tested on: soybean; experiment: Test B pre/postemergence soybean; assay type: in vivo, Glycine max
In short: as §1

[9] = tested on: sugar beet; experiment: Test B pre/postemergence sugar beet; assay type: in vivo, Beta vulgaris
In short: as §1

[10] = tested on: wild oat; experiment: Test B pre/postemergence wild oat; assay type: in vivo, Avena fatua
In short: as §1

[11] = tested on: bamyardgrass; experiment: Test B flood test barnyardgrass; assay type: in vivo, Echinochloa crus-galli
In short: (§2)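 Each value is a visual injury score relative to controls, with 10 meaning complete control and 0 no effect. Evaluation took place twelve to sixteen days after the 2-leaf-stage plants were treated and kept in the greenhouse.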

[12] = tested on: purple nutsedge; experiment: Test B pre/postemergence purple nutsedge; assay type: in vivo, Cyperus rotundus
In short: as §1

[13] = tested on: smallflower flatsedge; experiment: Test B flood test smallflower flatsedge; assay type: in vivo, Cyperus difformis
In short: as §2

[14] = tested on: morningglory; experiment: Test B pre/postemergence morningglory; assay type: in vivo, Ipomoea hederacea
In short: as §1

[15] = tested on: bedstraw; experiment: Test B pre/postemergence bedstraw; assay type: in vivo, Galium aparine
In short: as §1

[16] = tested on: duck salad; experiment: Test B flood test duck salad; assay type: in vivo, Heteranthera limosa
In short: as §2

[17] = Postemergence, Rate 62 g/ha, scale 0 to 10, 0 is no effect, 10 is complete control
[18] = Postemergence, Rate 250 g/ha, scale 0 to 10, 0 no effect, 10 complete control
[19] = Preemergence, Rate 31 g/ha, visual rating, scale 0 to 10 (0 no effect, 10 complete control)
[20] = Preemergence, Rate 62 g/ha, scale 0 to 10, 0 is no effect, 10 is complete control
[21] = Preemergence, Rate 125 g/ha, scale 0 to 10 (0 no effect, 10 complete control)
[22] = Preemergence, Rate 250 g/ha, scale of 0 to 10 where 0 is no effect and 10 is complete control
[23] = Rate 31 g/ha, Postemergence, scale 0 to 10
[24] = Rate 125 g/ha, Postemergence, scale 0 to 10, 0 no effect, 10 complete control
[25] = Rate 125 g/ha, Postemergence section (flood test species), scale 0 to 10, 0 no effect, 10 complete control
[26] = Rate 500 g/ha, Postemergence section of Table B, 0 to 10 scale (0 no effect, 10 complete control)
[27] = flood test, listed under Postemergence, Rate 250 g/ha, scale 0 to 10, 0 no effect, 10 complete control

SMILES: CCN(C(=O)n1oc(=O)n(-c2c(C)cccc2C)c1=O)C1CCCCC1 [Compound 27]
- Blackgrass plant response rating [1, 17]: 0
- Blackgrass plant response rating [1, 18]: 0
- Blackgrass plant response rating [1, 19]: 0
- Plant response rating, Blackgrass [1, 20]: 0
- Plant response rating, Blackgrass [1, 21]: 0
- Plant response rating, Blackgrass [1, 22]: 0
- Blackgrass plant response rating [1, 23]: 0
- Blackgrass plant response rating [1, 24]: 0
- Redroot pigweed plant response rating [2, 17]: 0
- Redroot pigweed plant response rating [2, 18]: 0
- Redroot pigweed plant response rating [2, 19]: 0
- Plant response rating, Redroot pigweed [2, 20]: 0
- Plant response rating, Redroot pigweed [2, 21]: 0
- Plant response rating, Redroot pigweed [2, 22]: 0
- Redroot pigweed plant response rating [2, 23]: 0
- Redroot pigweed plant response rating [2, 24]: 0
- Cocklebur plant response rating [3, 17]: 0
- Cocklebur plant response rating [3, 18]: 0
- Cocklebur plant response rating [3, 19]: 0
- Plant response rating, Cocklebur [3, 20]: 0
- Plant response rating, Cocklebur [3, 21]: 0
- Plant response rating, Cocklebur [3, 22]: 0
- Cocklebur plant response rating [3, 23]: 0
- Cocklebur plant response rating [3, 24]: 0
- Rape plant response rating [4, 17]: 0
- Rape plant response rating [4, 18]: 0
- Rape plant response rating [4, 19]: 0
- Plant response rating, Rape [4, 20]: 0
- Plant response rating, Rape [4, 21]: 0
- Plant response rating, Rape [4, 22]: 0
- Rape plant response rating [4, 23]: 0
- Rape plant response rating [4, 24]: 0
- Wheat plant response rating [5, 17]: 0
- Wheat plant response rating [5, 18]: 0
- Wheat plant response rating [5, 19]: 0
- Plant response rating, Wheat [5, 20]: 0
- Plant response rating, Wheat [5, 21]: 0
- Plant response rating, Wheat [5, 22]: 0
- Wheat plant response rating [5, 24]: 0
- B. signalgrass plant response rating [6, 17]: 0
- B. signalgrass plant response rating [6, 18]: 0
- B. signalgrass plant response rating [6, 19]: 0
- Plant response rating, B. signalgrass [6, 20]: 0
- Plant response rating, B. signalgrass [6, 21]: 0
- Plant response rating, B. signalgrass [6, 22]: 0
- B. signalgrass plant response rating [6, 23]: 0
- B. signalgrass plant response rating [6, 24]: 0
- Giant foxtail plant response rating [7, 17]: 0
- Giant foxtail plant response rating [7, 18]: 0
- Giant foxtail plant response rating [7, 19]: 0
- Plant response rating, Giant foxtail [7, 20]: 0
- Plant response rating, Giant foxtail [7, 21]: 0
- Plant response rating, Giant foxtail [7, 22]: 0
- Giant foxtail plant response rating [7, 23]: 0
- Giant foxtail plant response rating [7, 24]: 0
- Soybean plant response rating [8, 17]: 1
- Soybean plant response rating [8, 18]: 2
- Soybean plant response rating [8, 19]: 0
- Plant response rating, Soybean [8, 20]: 0
- Plant response rating, Soybean [8, 21]: 0
- Plant response rating, Soybean [8, 22]: 0
- Soybean plant response rating [8, 24]: 1
- Sugarbeets plant response rating [9, 17]: 0
- Sugarbeets plant response rating [9, 18]: 0
- Sugarbeets plant response rating [9, 19]: 0
- Plant response rating, Sugarbeets [9, 20]: 0
- Plant response rating, Sugarbeets [9, 21]: 0
- Plant response rating, Sugarbeets [9, 22]: 0
- Sugarbeets plant response rating [9, 24]: 0
- Wild oats plant response rating [10, 17]: 0
- Wild oats plant response rating [10, 18]: 0
- Wild oats plant response rating [10, 19]: 0
- Plant response rating, Wild oats [10, 21]: 0
- Plant response rating, Wild oats [10, 22]: 0
- Wild oats plant response rating [10, 24]: 0
- Barnyardgrass plant response rating [11, 17]: 0
- Barnyardgrass plant response rating [11, 25]: 0
- Barnyardgrass plant response rating [11, 26]: 9
- Barnyardgrass plant response rating [11, 27]: 8
- Nutsedge plant response rating [12, 17]: 0
- Nutsedge plant response rating [12, 18]: 0
- Nutsedge plant response rating [12, 19]: 0
- Plant response rating, Nutsedge [12, 20]: 0
- Plant response rating, Nutsedge [12, 21]: 0
- Plant response rating, Nutsedge [12, 22]: 0
- Nutsedge plant response rating [12, 23]: 0
- Nutsedge plant response rating [12, 24]: 0
- S. Flatsedge plant response rating [13, 17]: 0
- S. Flatsedge plant response rating [13, 25]: 0
- S. Flatsedge plant response rating [13, 27]: 0
- Morningglory plant response rating [14, 17]: 0
- Morningglory plant response rating [14, 18]: 0
- Morningglory plant response rating [14, 19]: 0
- Plant response rating, Morningglory [14, 20]: 0
- Plant response rating, Morningglory [14, 21]: 0
- Plant response rating, Morningglory [14, 22]: 0
- Morningglory plant response rating [14, 23]: 0
- Morningglory plant response rating [14, 24]: 0
- Bedstraw plant response rating [15, 17]: 0
- Bedstraw plant response rating [15, 18]: 0
- Bedstraw plant response rating [15, 19]: 0
- Plant response rating, Bedstraw [15, 20]: 0
- Plant response rating, Bedstraw [15, 21]: 0
- Plant response rating, Bedstraw [15, 22]: 0
- Bedstraw plant response rating [15, 23]: 0
- Bedstraw plant response rating [15, 24]: 0
- Ducksalad plant response rating [16, 17]: 0
- Ducksalad plant response rating [16, 25]: 0
- Ducksalad plant response rating [16, 26]: 0
- Ducksalad plant response rating [16, 27]: 0
